By IC50 is commonly meant the concentration that inhibits the measured activity by half.

“Also recorded” adds a separate entry of the source.

Holding throughout (assay type): cell-based
Assay [1] deals with pAkt S473 in PC3 cells (mTORC2). As to the kind of experiment: Western blot based pAKT assay (mTORC2 pathway). The conditions noted are these: 24 hours. On the procedure:
(§1) Example 76: Western Blot Based pS6K1 and pAKT Assay at 24 and 48 Hour Timepoints
Assay Protocol: • 1. Seed six well plate with 500,000 PC3 cells per well and incubate for […]. • 2. Add compounds into the cell plate. Incubate for 24 to 48 hours. • 4. Plate is placed on ice and the media is removed via aspiration. The wells are washed with 1 mL of 1×PBS and then fully aspirated. • 5. 110 μL of 1% Triton Lysis Buffer is added and each well is scraped vigorously. • 6. Cell homogenates are transferred to 1.5 mL eppendorf tubes on ice and spun down at 4° C. for 10 minutes at 10,000 rpm. • 7. Protein concentration of resulting cell lysates were quantified utilizing a Bradford assay and the samples run analyzed via Western blot on 4-12% Bis/Tris gels with 1×MES buffer. • 8. The gels were transferred onto membranes at 50V for 100 minutes, blocked with Odyssey Blocking buffer for 30 minutes then incubated overnight with primary antibody (pS6K1 T389 Rabbit or pAkt S473 Rabbit) overnight at 4° C. on a rotator. • 9. […]
The methods employed were substantially similar to those described above. Compounds were evaluated in PC3 cells. […] Cells are incubated with compounds of the present invention for various time periods (e.g., 5 minutes, 15 minutes, 30 minutes, 90 minutes, 24 hours, or 48 hours), and evaluated according to known methodologies, such as those herein described.

The subject of assay [2] is mTORC1 over mTORC2. Description: mTORC1 selectivity over mTORC2 at 24 hrs (pS6K1 and pAKT assays). The conditions noted are these: selectivity for mTORC1 over mTORC2 at 24 hrs. Here is the method:
as §1
(§2) Assay Protocol: • 1. Seed six well plate with 500,000 PC3 cells per well and incubate for […]. • 2. Add compounds into the cell plate. Incubate for 24 to 48 hours. • 4. Plate is placed on ice and the media is removed via aspiration. The wells are washed with 1 mL of 1×PBS and then fully aspirated. • 5. 110 μL of 1% Triton Lysis Buffer is added and each well is scraped vigorously. • 6. Cell homogenates are transferred to 1.5 mL eppendorf tubes on ice and spun down at 4° C. for 10 minutes at 10,000 rpm. • 7. Protein concentration of resulting cell lysates were quantified utilizing a Bradford assay and the samples run analyzed via Western blot on 4-12% Bis/Tris gels with 1×MES buffer. • 8. The gels were transferred onto membranes at 50V for 100 minutes, blocked with Odyssey Blocking buffer for 30 minutes then incubated overnight with primary antibody (pS6K1 T389 Rabbit or pAkt S473 Rabbit) overnight at 4° C. on a rotator. • 9. The membranes were washed 3× with TBS-T with a 5 minute incubation between each wash then incubated with secondary antibody (LiCor IRDye 800 Donkey Anti Rabbit) for at least 30 minutes. • 10. The membranes were washed 3× with TBS-T with a 5 minute incubation between each wash. • 11. The gels were then incubated for 5 minutes with PBS at room temperature then imaged using a Li-Cor.
The compound numbers correspond to the compound numbers in Table 1.
Compounds that are not selective at the 24 hrs mark are indicated by “NO” in the “mTORC1 selective @ 24 hrs” column of Table 4. Compounds that partially retain selectivity for mTORC1 inhibition over mTORC2 are indicated by “Partial” in the “mTORC1 selective @ 24 hrs” column of Table 4.

For assay [3], the system named is pS6K1 T389 in PC3 cells (mTORC1 pathway). Description: Western blot based pS6K1 assay (mTORC1 pathway). The settings on record: 24 hours. Here is the method:
as §1, §2
PC3 cells were treated with everolimus (0.1 μM, 0.01 μM, and 0.001 μM) or I-9 ([…], 0.1 μM, 0.01 μM, and 0.001 μM) for 24 hours.
The methods employed were substantially similar to those described above. Compounds were evaluated in PC3 cells. Additional cell lines that may be used include Jurkat cells, wild-type mouse embryotic fibroblast (MEF) cells, tuberous sclerosis 2 (TSC2) negative (TSC−/−) MEF cells, and tuberous sclerosis 2 (TSC2) positive (TSC+/+) MEF cells. Cells are incubated with compounds of the present invention for various time periods (e.g., 5 minutes, 15 minutes, 30 minutes, 90 minutes, 24 hours, or 48 hours), and evaluated according to known methodologies, such as those herein described.
(Immunoblotting shows a protein as a band on a membrane.)

The test system of assay [4] is pS6K1 in MCF7. Description: AlphaLISA Ultra pS6K1 Assay. The settings on record: Homo sapiens, 1.5 h; MCF7 cells, 90 min incubation. Summed up:
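MCF-7 cells treated with compounds for 90 min (0.5% DMSO final), then lysed and frozen at −80° C. Phospho-S6K1 in lysate measured by AlphaLISA Ultra with acceptor then donor beads, 2 h each.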
(In general: Bead proximity is the source of the signal in Alpha formats.)

For the molecule `CO[C@@H]1C[C@H](C[C@@H](C)[C@@H]2CC(=O)[C@H](C)/C=C(\C)[C@@H](O)[C@@H](OC)C(=O)[C@H](C)C[C@H](C)/C=C/C=C/C=C(\C)[C@@H](OCCOC3COC3)C[C@@H]3CC[C@@H](C)[C@@](O)(O3)C(=O)C(=O)N3CCCC[C@H]3C(=O)O2)CC[C@H]1OCCO` [Example I-9, (23E,25E,27E,28E,34R,35S,36R,37R,39S,41S,43S,44S,46R,47R,56R)-46,56-dihydroxy-44-[(1R)-2-[(1S,3R,4R)-4-(2-hydroxyethoxy)-3-methoxy-cyclohexyl]-1-methyl-ethyl]-47-methoxy-34,35,36,37,48,49-hexamethyl-43-[2-(oxetan-3-yloxy)ethoxy]-67,68-dioxa-57-azatricyclohexatriaconta-23,25,27(48),28(49)-tetraene-50,51,52,53,54-pentone], the “inhibition of mTORC2 (Akt phosphorylation, pAkt, Western blot)” value in assay [1] was “did not reduce”. For the same molecule, the “mTORC1 selective @ 24 hrs” value in assay [2] is “Yes”. Also, the “inhibition of the mTORC1 pathway (pS6K1, Western blot)” value in assay [3] is listed as “reduction in pS6K1; also recorded: moderate concentration dependent inhibition”. In addition, the IC50 in assay [4] fell in the range of 0.1 to 1 nM.

The values above are taken from patent US11819476B2, “Rapamycin analogs and uses thereof” (Janssen Pharmaceutica NV, priority 2019, dated 2023).
